Legend:
MDA-MB-231 [1] = experiment: cells; conditions: Homo sapiens, MDA-MB-231, 72 h
Description: Cytotoxicity against human MDA-MB-231 cells after 72 hrs by MTT assay

[2] = molecular target: Heat shock protein HSP 90-alpha (Homo sapiens, UniProt P07900); experiment: Inhibition of GA-FITC binding to human recombinant Hsp90alpha incubated for 5 hrs by fluorescence polarization assay
Mus musculus [3] = experiment: Hepatotoxicity in Kunming mouse assessed as serum alanine aminotransferase level at 10 mg/kg, iv (reference value: 60.7 +/- 6.9U/L); format: toxicity, organism-based; parameters: dose 10 mg/kg, route intravenous; conditions: in vivo
Mus musculus [4] = experiment: Hepatotoxicity in Kunming mouse assessed as serum aspartate aminotransferase level at 10 mg/kg, iv (reference value: 197.2 +/- 11.2 U/L); format: toxicity, organism-based; parameters: dose 10 mg/kg, route intravenous; conditions: in vivo
MDA-MB-231 [5] = experiment: Antitumor activity against human MDA-MB-231 cells xenografted in athymic nude mouse assessed as tumor growth inhibition at 10 mg/kg, iv dosed every 3 day for 15 consecutive days; format: functional; conditions: MDA-MB-231, 72 h, read-out: TGI
HUVEC = experiment: cells; conditions: Homo sapiens, 72 h
Description: Cytotoxicity against HUVEC cells after 72 hrs by MTT assay

cells [6] = conditions: Homo sapiens, L02, 72 h
Description: Cytotoxicity against human HL7702 cells after 72 hrs by MTT assay

HeLa = experiment: cells; conditions: Homo sapiens, 72 h
Description: Cytotoxicity against human HeLa cells after 72 hrs by MTT assay

MDA-MB-231 [7] = experiment: Antitumor activity against human MDA-MB-231 cells xenografted in athymic nude mouse assessed as reduction in tumor weight at 10 mg/kg, iv dosed every 3 day for 15 consecutive days; format: functional
HepG2 = experiment: cells; conditions: Homo sapiens, HepG2, 72 h
Description: Cytotoxicity against human HepG2 cells after 72 hrs by MTT assay

A-431 = experiment: cells; conditions: Homo sapiens, A-431, 72 h
Description: Cytotoxicity against human A431 cells after 72 hrs by MTT assay

A549 = experiment: cells; conditions: Homo sapiens, A549, 72 h
Description: Cytotoxicity against human A549 cells after 72 hrs by MTT assay

SW480 = experiment: cells; conditions: Homo sapiens, SW480, 72 h
Description: Cytotoxicity against human SW480 cells after 72 hrs by MTT assay

cells [8] = conditions: Homo sapiens, BGC-823, 72 h
Description: Cytotoxicity against human BGC823 cells after 72 hrs by MTT assay

SMILES	IC50 (MDA-MB-231 [1])	IC50 [2]	Activity (Mus musculus [3])	Activity (Mus musculus [4])	other results
COc1cc(/C=C/C(=O)NCCCCCCNC2=C3C[C@@H](C)C[C@H](OC)[C@H](O)[C@@H](C)/C=C(\C)[C@H](OC(N)=O)[C@@H](OC)/C=C\C=C(/C)C(=O)NC(=CC2=O)C3=O)ccc1O	270 nM	470 nM	72.7 U/L	199.3 U/L	–
COC1=C2C[C@@H](C)C[C@H](OC)[C@H](O)[C@@H](C)/C=C(\C)[C@H](OC(N)=O)[C@@H](OC)/C=C\C=C(/C)C(=O)NC(=CC1=O)C2=O [GELDANAMYCIN]	–	–	273 U/L	317.2 U/L	–
COc1ccc(/C=C/C(=O)NCCCCCCNC2=C3C[C@@H](C)C[C@H](OC)[C@H](O)[C@@H](C)/C=C(\C)[C@H](OC(N)=O)[C@@H](OC)/C=C\C=C(/C)C(=O)NC(=CC2=O)C3=O)cc1OC	300 nM	410 nM	52.8 U/L	193.4 U/L	–
C=CCNC1=C2C[C@@H](C)C[C@H](OC)[C@H](O)[C@@H](C)/C=C(\C)[C@H](OC(N)=O)[C@@H](OC)/C=C\C=C(/C)C(=O)NC(=CC1=O)C2=O [TANESPIMYCIN]	280 nM	–	66.6 U/L	237.4 U/L	inhibition in vivo at 10 mg/kg (MDA-MB-231 [5]): 73%; IC50 (HUVEC): 282 nM; IC50 (cells [6]): 99 nM; IC50 (HeLa): 128 nM; T/C (MDA-MB-231 [7]): 28%; IC50 (HepG2): 91 nM; IC50 (A-431): 89 nM; IC50 (A549): 81 nM; IC50 (SW480): 572 nM; IC50 (cells [8]): 847 nM
COc1cc(/C=C/C(=O)N2CCC(CNC3=C4C[C@@H](C)C[C@H](OC)[C@H](O)[C@@H](C)/C=C(\C)[C@H](OC(N)=O)[C@@H](OC)/C=C\C=C(/C)C(=O)NC(=CC3=O)C4=O)CC2)ccc1O	940 nM	1840 nM	148.6 U/L	260.8 U/L	–
COc1cc(/C=C/C(=O)NCCCCNC2=C3C[C@@H](C)C[C@H](OC)[C@H](O)[C@@H](C)/C=C(\C)[C@H](OC(N)=O)[C@@H](OC)/C=C\C=C(/C)C(=O)NC(=CC2=O)C3=O)ccc1O	550 nM	970 nM	75.3 U/L	224.8 U/L	–
CO[C@H]1/C=C\C=C(/C)C(=O)NC2=CC(=O)C(NCCCCCCNC(=O)/C=C/c3cccc(C)c3)=C(C[C@@H](C)C[C@H](OC)[C@H](O)[C@@H](C)/C=C(\C)[C@@H]1OC(N)=O)C2=O	2550 nM	–	–	–	–
CO[C@H]1/C=C\C=C(/C)C(=O)NC2=CC(=O)C(NCCCCCCNC(=O)c3ccc(F)cc3)=C(C[C@@H](C)C[C@H](OC)[C@H](O)[C@@H](C)/C=C(\C)[C@@H]1OC(N)=O)C2=O	4160 nM	–	–	–	–

— ChEMBL document CHEMBL3352031, “Discovery of diamine-linked 17-aroylamido-17-demethoxygeldanamycins as potent Hsp90 inhibitors” (Eur J Med Chem, 2014)
